Results reported in ChEMBL document CHEMBL1131502, “Thiol-induced nitric oxide release from 3-halogeno-3,4-dihydrodiazete 1,2-dioxides” (J Med Chem, 1998).

Experiments:
[1] = apparent rate constant value of the compound; assay type: ADME
[2] = The compound was tested for the concentration to reduce the viability of bovine aortic endothelial cell by 50% within 24 hr after compound addition.; assay type: functional, cell-based; settings: Bos taurus
Homo sapiens = species: Homo sapiens; experiment: The compound was tested for half-maximum inhibition of platelet aggregation; assay type: functional

SMILES	rate constant app [1]	IC50 [2]	IC50 (Homo sapiens)
CC12CCCCC1(Br)[N+]([O-])=[N+]2[O-] (stereo not drawn)	0.072 M⁻¹ s⁻¹	230 µM	1 µM
CC1(C)[N+]([O-])=[N+]([O-])C1(C)Br (stereo not drawn)	0.052 M⁻¹ s⁻¹	1400 µM	10 µM
CC12CCCCC1(Cl)[N+]([O-])=[N+]2[O-] (stereo not drawn)	0.0033 M⁻¹ s⁻¹	> 6000 µM	–
